A short description of series [1]: pH-dependent 1D FTIR / 2D IR spectroscopy of KP1212 in aqueous solutions (pKa). To be noted: aqueous (D2O) solutions, pH* varied from 1.6 to 13.9; 1D and/or 2D IR spectroscopy, 25° C. It is filed as physicochemical. The method, then: FIGS. 1A to 1E. FIG. 1A: pH-dependent (Fourier transform infrared) FTIR spectra of KP1212 from pH* 1.6 (red or thin solid line) to 13.9 (blue or thick solid line) at 25° C. FIG. 1B: populations of protonated, neutral, and deprotonated KP1212 as a function of pH* obtained from the first three components of singular value decomposition (SVD) analysis. The solid lines show fits of the Henderson-Hasselbalch equation with pKa1 and pKa2. FIGS. 1C to 1E: SVD reconstructed IR spectra representative for the protonated (FIG. 1C), neutral (FIG. 1D), and deprotonated (FIG. 1E) KP1212. The grey curves, labeled A, in FIG. 1C and FIG. 1D are the experimental FTIR spectra of 1-(1′,4′-cyclohexadienyl)-2-methylaminopropane (CMP) at pH* 1.6 and 7.4, respectively. The pH* is the pH measured in D2O, as measured with a pH meter. The FTIR experiments were run in D2O.
An in vitro assay has been developed that allowed the measurement of the mutation type and rate of KP1212 at different pH values, and the mutagenic properties of KP1212 have been evaluated at pH 6-8. […] By simply changing the pH of a composition (e.g., a bodily fluid or aqueous solution) containing KP1212 to 5.9, KP1212 achieves its optimal mutagenicity of about 50%.
For both 1D FTIR and 2D IR experiments, the H/D exchanged KP1212 was dissolved at a concentration of 20 mg/ml (88 mM) in 0.5 M phosphate buffer pD (pH reading in D2O) 7.9. […]

Series [2] relates to M13 single-stranded genomes, containing one KP1212 base at a specific site. The series is described as follows: primer extension at various pHs on M13 genome containing KP1212, PCR and REAP assay (mutagenesis). It is filed as biochemical. Here is the method: The method of evaluating the mutagenicity of a compound allows for analyzing the product of a primer extension reaction (by itself a trivial reaction, even if run at different pHs) with the REAP method (this method was published in Delaney, J. C. & Essigmann, J. M., Methods Enzymol. 408, 1-15 (2006)). The methods involve a custom primer, of the form 5′-B-A-3′ and the following protocol. The A sequence is the actual primer for the extension reaction, and by itself has a low (about 37° C.) melting temperature. […] Its melting temperature is high, at about 70° C. The template of the primer extension reaction is an M13 genome containing at a specific site a modified base (or nucleoside analog). After the primer extension reaction, a PCR reaction is run using two primers; primer 1 is the forward primer used in the REAP method (or a primer annealing on the M13 genome upstream of the lesion site); primer 2 is exactly the sequence B. This method guarantees that only the primer extension product will be PCR amplified, and amplification will not depend on the yield of the primer extension reaction. Therefore, this method allows to detect and analyze mutagenic consequences (including rare events) of nucleoside analogs in a variety of conditions, where the type of polymerase, pH, ionic strength, salt concentration, and inhibitors can be varied over a large range of possibilities.
The M13 single-stranded genomes, containing one KP1212 base at a specific site were constructed and purified as previously reported (Li, Fedeles, Singh, Peng et al, 2014, Tautomerism provides a molecular explanation for the mutagenic properties of the anti-HIV nucleoside 5-aza-5,6-dihydro-2′-deoxycytidine, Proc. Natl. Acad. Sci. U.S.A. 111, E3252-3259). […]
The PCR products were subsequently purified and analyzed with the REAP assay as previously described (Li, Fedeles, Singh, Peng et al, 2014, Tautomerism provides a molecular explanation for the mutagenic properties of the anti-HIV nucleoside 5-aza-5,6-dihydro-2′-deoxycytidine. Proc. Natl. Acad. Sci. U.S.A. 111, E3252-3259). […]

For series [3], the system named is single-stranded vector containing a single KP1212. The series is described as follows: in vitro and in vivo replication of a single-stranded vector containing a single KP1212. An excerpt: Mutagenic nucleoside analogs may act through lethal mutagenesis. Lethal mutagenesis is a strategy whereby the innate immune system or mutagenic pool nucleotides increase the error rate of viral replication above the error catastrophe limit. Lethal mutagenesis can also increase the mutation rate of the DNA and/or RNA of cancer cells (e.g., cancer cells with a mutator phenotype) to over the error catastrophe limit and thus show genotoxicity and/or mitochondrial toxicity against the cancer cells. Lethal mutagenesis is proposed as a mechanism for several anti-viral compounds, including Ribavirin, which is useful for treating RS virus infection (RSV) and KP1212, a dihydro base which causes A to G and G to A mutations in HIV. […] The mutagenic properties of KP1212 were determined empirically by in vitro and in vivo replication of a single-stranded vector containing a single KP1212. […] A model is proposed that correlates the mutagenicity of KP1212 with its tautomeric distribution in solution. When incorporated into HIV DNA by RT, KP1212 allows DNA synthesis to continue. However, the modified base of KP1212 is able to tautomerize and base-pair alternately with guanine and adenine. […] Variable temperature (VT) nuclear magnetic resonance (NMR) techniques have allowed the identification of compounds capable of multiple tautomerism.

Series [4] relates to HIV. As to conditions: Phase I and II; active form of the pro-drug KP1461; cited from earlier work.

The source of these data is US9714265B2, “Mutagenic nucleoside analogs and uses thereof” (Massachusetts Institute of Technology, priority 2015, dated 2017).

The term pKa denotes the negative logarithm of the acid dissociation constant.

SMILES strings stand for the structures.

`NC1=NC(=O)N([C@H]2C[C@H](O)[C@@H](CO)O2)CN1` [KP1212, 5-aza-5,6-dihydro-2′-deoxycytidine]: in series [1], the pKa is ~7. For the same compound, the mutagenesis entry in series [2] (at pH 5.9) is reported as “about 50%”; in series [2] (at pH 8), “about 10%”. In addition, in series [2] (pH 5.5-8.5), the “C-to-T mutations in dependence on pH” value is on record as “more C-to-T mutations as the pH decreases”. The compound further yielded a mutagenicity in series [3] of 10%. Besides, the C-to-T mutations entry in series [3] (in vivo, when present in a template strand) was “about 10%”. For the same compound, the “paired with adenine, share of the time” value in series [3] (under physiological conditions) is recorded as “about 10%”. Besides, the “paired with guanine, share of the time” value in series [3] (under physiological conditions) is given as “approximately 90%”. Moreover, the “safety in clinical trials” value in series [4] was “safe”.
